Assay results as given in ChEMBL document CHEMBL1133886, “Synthesis of N-alkyl substituted indolocarbazoles as potent inhibitors of human cytomegalovirus replication” (Bioorg Med Chem Lett, 2001).

Experiments:
[1] = test system: Human betaherpesvirus 5; experiment: Inhibitory activity against human cytomegalo virus (HCMV) using standard plaque reduction assay; type: functional, organism-based
[2] = molecular target: Protein kinase C (PKC); experiment: Inhibition of protein kinase C; type: protein assay
[3] = test system: Vero; experiment: Compound was evaluated for its cytotoxicity against Vero cell line; type: functional, Chlorocebus sabaeus
[4] = molecular target: Protein kinase C (PKC) (Homo sapiens) (UniProt O94806+P41743+P17252+P05129+Q05655+P05771+Q05513+Q02156+P24723+Q15139+Q04759); experiment: Percent inhibition of protein kinase C at 100 uM; type: protein assay
[5] = test system: MRC5; experiment: Inhibitory concentration against Towne HCMV strain of MRC5 cells; type: functional, cell-based; settings: Homo sapiens
[6] = test system: MRC5; experiment: Inhibitory concentration against Davis HCMV strain of MRC5 cells; type: functional, cell-based; settings: Homo sapiens
[7] = test system: MRC5; experiment: Inhibitory concentration against AD169 HCMV strain of MRC5 cells; type: functional, cell-based; settings: Homo sapiens
[8] = test system: MRC5; experiment: Inhibitory concentration against 2599R HCMV strain of MRC5 cells; type: functional, cell-based; settings: Homo sapiens
[9] = test system: MRC5; experiment: Inhibitory concentration against C8805 HCMV strain of MRC5 cells; type: functional, cell-based; settings: Homo sapiens
[10] = test system: MRC5; experiment: Inhibitory concentration against Xba F HCMV strain of MRC5 cells; type: functional, cell-based; settings: Homo sapiens
[11] = test system: MRC5; experiment: Inhibitory concentration against AD169 strain of HCMV in MRC5 cells; type: functional, cell-based; settings: Homo sapiens
[12] = test system: MRC5; experiment: Inhibitory concentration against Towne strain of HCMV in MRC5 cells; type: functional, cell-based; settings: Homo sapiens
[13] = test system: MRC5; experiment: Inhibitory concentration against Davis strain of HCMV in MRC5 cells; type: functional, cell-based; settings: Homo sapiens
[14] = test system: MRC5; experiment: Inhibitory concentration against 2599R strain of HCMV in MRC5 cells; type: functional, cell-based; settings: Homo sapiens
[15] = test system: MRC5; experiment: Inhibitory concentration against Xba F strain of HCMV in MRC5 cells; type: functional, cell-based; settings: Homo sapiens

Row | SMILES | IC50 [1] | IC50 [2] | CCID50 [3] | inhibition [4] | other results
1 | CCCn1c2ccccc2c2c3c(c4c5ccccc5[nH]c4c21)C(=O)NC3=O | 0.15 µM | 50 µM | <8 µM | – | –
2 | O=C1NC(=O)c2c1c1c3ccccc3[nH]c1c1c2c2ccccc2n1Cc1ccccc1 | – | – | <31 µM | 23% | –
3 | CCn1c2ccccc2c2c3c(c4c5ccccc5[nH]c4c21)C(=O)NC3=O | 0.019 µM | 10 µM | >125 µM | – | IC50 [5]: 0.09 µM; IC50 [6]: 0.03 µM; IC50 [7]: 0.019 µM; IC50 [8]: 0.13 µM; IC50 [9]: 0.06 µM; IC50 [10]: 0.02 µM
4 | CC(C)Cn1c2ccccc2c2c3c(c4c5ccccc5[nH]c4c21)C(=O)NC3=O | 0.03 µM | – | <8 µM | 71% | –
5 | Cn1c2ccccc2c2c3c(c4c5ccccc5[nH]c4c21)C(=O)NC3=O | 0.06 µM | – | >31 µM | 47% | –
6 | CC(C)n1c2ccccc2c2c3c(c4c5ccccc5[nH]c4c21)C(=O)NC3=O | 0.1 µM | 50 µM | 28 µM | – | –
7 | O=C1NC(=O)c2c1c1c3ccccc3[nH]c1c1c2c2ccccc2n1CC(F)(F)F | 0.07 µM | 25 µM | <8 µM | – | –
8 | O=C1NC(=O)c2c1c1c3ccccc3[nH]c1c1[nH]c3ccccc3c21 [STAUROSPORINE AGLYCON] | 0.2 µM | – | >125 µM | < 50% | –
9 | Nc1nc2c(ncn2COC(CO)CO)c(=O)[nH]1 [GANCICLOVIR] | 3 µM | – | >500 µM | – | IC50 [11]: 3 µM; IC50 [12]: 1.5 µM; IC50 [13]: 1.4 µM; IC50 [14]: 1.6 µM; IC50 [15]: > 10 µM
